Laboratory results: ChEMBL document CHEMBL4837239, “Identification of Thieno[3,2-d]pyrimidine Derivatives as Dual Inhibitors of Focal Adhesion Kinase and FMS-like Tyrosine Kinase 3” (J Med Chem, 2021)

Assays:
BaF3 [1] = experiment: Antiproliferative activity against mouse Ba/F3 cells harbouring FLT3 ITD D835Y mutant assessed as growth inhibition measured after 72 hrs by CellTiter-Glo assay; format: functional
BaF3 [2] = experiment: Antiproliferative activity against mouse Ba/F3 cells harbouring FLT3 D835Y mutant assessed as growth inhibition measured after 72 hrs by CellTiter-Glo assay; format: functional
BaF3 [3] = experiment: Antiproliferative activity against mouse Ba/F3 cells harbouring FLT3 ITD F691L mutant assessed as growth inhibition measured after 72 hrs by CellTiter-Glo assay; format: functional
BaF3 [4] = experiment: Antiproliferative activity against mouse Ba/F3 cells harbouring FLT3 ITD F691I mutant assessed as growth inhibition measured after 72 hrs by CellTiter-Glo assay; format: functional
[5] = Inhibition of FLT3 D835Y (unknown origin); design: species or system Homo sapiens
BaF3 [6] = experiment: Antiproliferative activity against mouse Ba/F3 cells assessed as growth inhibition measured after 72 hrs by CellTiter-Glo assay; format: functional
[7] = Metabolic stability in human liver microsomes assessed as compound remaining at 1 uM measured after 1 hr; format: ADME, Microsome; details: read-out: Stabilty
BaF3 [8] = experiment: Antiproliferative activity against mouse Ba/F3 cells harbouring FLT3 ITD mutant assessed as growth inhibition measured after 72 hrs by CellTiter-Glo assay; format: functional
Focal adhesion kinase 1 = Focal adhesion kinase 1 (Homo sapiens, UniProt Q05397); experiment: Inhibition of recombinant FAK (unknown origin) by radiometric kinase assay
Sequence of Focal adhesion kinase 1 (Q05397 whole entry): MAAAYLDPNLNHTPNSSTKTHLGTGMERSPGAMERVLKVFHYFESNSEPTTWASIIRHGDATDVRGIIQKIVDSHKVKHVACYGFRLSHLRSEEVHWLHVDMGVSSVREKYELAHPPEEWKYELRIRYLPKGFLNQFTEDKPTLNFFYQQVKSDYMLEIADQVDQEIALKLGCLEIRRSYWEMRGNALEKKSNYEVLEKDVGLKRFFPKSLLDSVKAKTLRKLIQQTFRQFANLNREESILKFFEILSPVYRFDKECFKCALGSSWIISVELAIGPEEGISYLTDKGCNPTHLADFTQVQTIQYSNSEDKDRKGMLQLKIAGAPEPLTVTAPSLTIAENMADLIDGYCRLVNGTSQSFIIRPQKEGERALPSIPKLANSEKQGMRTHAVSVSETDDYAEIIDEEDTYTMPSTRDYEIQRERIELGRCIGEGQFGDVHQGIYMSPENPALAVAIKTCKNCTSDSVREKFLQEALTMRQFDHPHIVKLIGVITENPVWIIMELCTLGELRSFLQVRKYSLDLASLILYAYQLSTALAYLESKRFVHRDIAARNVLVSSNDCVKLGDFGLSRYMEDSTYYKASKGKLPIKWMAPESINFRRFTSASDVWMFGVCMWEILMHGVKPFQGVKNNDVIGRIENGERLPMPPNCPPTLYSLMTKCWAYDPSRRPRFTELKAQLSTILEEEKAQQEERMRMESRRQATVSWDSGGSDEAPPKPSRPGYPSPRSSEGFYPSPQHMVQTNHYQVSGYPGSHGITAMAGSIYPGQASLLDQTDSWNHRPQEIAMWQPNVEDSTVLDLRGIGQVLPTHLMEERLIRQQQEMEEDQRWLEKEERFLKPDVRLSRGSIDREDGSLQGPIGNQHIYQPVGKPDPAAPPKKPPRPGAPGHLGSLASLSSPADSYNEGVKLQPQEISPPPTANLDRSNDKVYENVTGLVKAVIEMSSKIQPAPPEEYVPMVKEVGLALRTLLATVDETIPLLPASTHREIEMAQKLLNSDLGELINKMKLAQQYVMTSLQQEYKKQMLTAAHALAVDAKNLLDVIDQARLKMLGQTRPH

HCT-116 = experiment: Antiproliferative activity against human HCT-116 cells assessed as growth inhibition measured after 72 hrs by CellTiter-Glo assay; format: functional
MDA-MB-231 = experiment: Antiproliferative activity against human MDA-MB-231 cells assessed as growth inhibition measured after 72 hrs by CellTiter-Glo assay; format: functional
[9] = Antiproliferative activity against human A375P cells assessed as growth inhibition measured after 72 hrs by CellTiter-Glo assay; format: functional
CYP2D6 = CYP2D6 (Homo sapiens, UniProt P10635); experiment: Inhibition of CYP2D6 (unknown origin) at 10 uM relative to control; format: ADME
Sequence of CYP2D6 (P10635 whole entry): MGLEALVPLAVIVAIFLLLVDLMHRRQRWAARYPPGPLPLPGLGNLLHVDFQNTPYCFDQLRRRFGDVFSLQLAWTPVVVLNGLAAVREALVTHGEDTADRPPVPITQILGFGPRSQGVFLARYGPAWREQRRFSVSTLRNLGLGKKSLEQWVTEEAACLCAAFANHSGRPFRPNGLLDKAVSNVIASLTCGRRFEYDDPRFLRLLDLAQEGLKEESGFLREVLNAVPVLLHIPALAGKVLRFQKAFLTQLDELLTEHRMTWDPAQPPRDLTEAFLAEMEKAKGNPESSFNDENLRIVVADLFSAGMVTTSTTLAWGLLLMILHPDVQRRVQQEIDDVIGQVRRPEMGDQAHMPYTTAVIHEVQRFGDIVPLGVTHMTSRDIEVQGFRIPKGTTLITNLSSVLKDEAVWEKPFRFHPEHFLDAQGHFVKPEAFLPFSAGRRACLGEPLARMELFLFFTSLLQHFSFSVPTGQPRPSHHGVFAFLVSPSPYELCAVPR

CYP3A4 = CYP3A4 (Homo sapiens, UniProt P08684); experiment: Inhibition of CYP3A4 (unknown origin) at 10 uM relative to control; format: ADME
Sequence of CYP3A4 (P08684 whole entry): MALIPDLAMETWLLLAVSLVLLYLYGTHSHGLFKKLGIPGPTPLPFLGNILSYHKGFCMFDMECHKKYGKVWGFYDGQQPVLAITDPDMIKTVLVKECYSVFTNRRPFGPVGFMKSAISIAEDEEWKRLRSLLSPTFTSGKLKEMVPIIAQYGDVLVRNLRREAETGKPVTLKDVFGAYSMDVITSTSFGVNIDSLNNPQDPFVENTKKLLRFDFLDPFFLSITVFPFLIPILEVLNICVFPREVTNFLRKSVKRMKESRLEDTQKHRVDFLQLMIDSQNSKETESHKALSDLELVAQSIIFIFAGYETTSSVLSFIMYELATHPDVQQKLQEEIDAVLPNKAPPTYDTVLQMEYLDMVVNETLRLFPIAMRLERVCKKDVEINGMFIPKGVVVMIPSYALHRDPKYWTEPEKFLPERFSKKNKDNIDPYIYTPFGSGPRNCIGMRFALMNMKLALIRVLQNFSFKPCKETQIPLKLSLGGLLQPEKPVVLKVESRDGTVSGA

CYP2C9 = CYP2C9 (Homo sapiens, UniProt P11712); experiment: Inhibition of CYP2C9 (unknown origin) at 10 uM relative to control; format: ADME
Sequence of CYP2C9 (P11712 whole entry): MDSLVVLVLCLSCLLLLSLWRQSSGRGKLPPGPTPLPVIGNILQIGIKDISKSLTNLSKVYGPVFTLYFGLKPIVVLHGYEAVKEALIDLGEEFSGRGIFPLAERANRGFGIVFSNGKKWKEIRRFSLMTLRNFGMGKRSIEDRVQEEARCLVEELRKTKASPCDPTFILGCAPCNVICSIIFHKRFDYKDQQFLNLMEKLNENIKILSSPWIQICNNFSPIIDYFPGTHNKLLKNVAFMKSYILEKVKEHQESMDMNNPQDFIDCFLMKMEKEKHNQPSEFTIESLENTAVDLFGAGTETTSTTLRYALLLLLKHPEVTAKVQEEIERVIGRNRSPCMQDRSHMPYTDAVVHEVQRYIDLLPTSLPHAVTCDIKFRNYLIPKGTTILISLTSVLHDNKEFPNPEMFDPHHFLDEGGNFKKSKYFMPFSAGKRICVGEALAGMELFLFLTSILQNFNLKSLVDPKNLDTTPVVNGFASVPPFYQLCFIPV

CYP1A2 = target: T1, CYP1A2 (Homo sapiens, UniProt P05177); experiment: Inhibition of CYP1A2 (unknown origin) at 10 uM relative to control; format: ADME
T1 sequence (P05177 whole entry): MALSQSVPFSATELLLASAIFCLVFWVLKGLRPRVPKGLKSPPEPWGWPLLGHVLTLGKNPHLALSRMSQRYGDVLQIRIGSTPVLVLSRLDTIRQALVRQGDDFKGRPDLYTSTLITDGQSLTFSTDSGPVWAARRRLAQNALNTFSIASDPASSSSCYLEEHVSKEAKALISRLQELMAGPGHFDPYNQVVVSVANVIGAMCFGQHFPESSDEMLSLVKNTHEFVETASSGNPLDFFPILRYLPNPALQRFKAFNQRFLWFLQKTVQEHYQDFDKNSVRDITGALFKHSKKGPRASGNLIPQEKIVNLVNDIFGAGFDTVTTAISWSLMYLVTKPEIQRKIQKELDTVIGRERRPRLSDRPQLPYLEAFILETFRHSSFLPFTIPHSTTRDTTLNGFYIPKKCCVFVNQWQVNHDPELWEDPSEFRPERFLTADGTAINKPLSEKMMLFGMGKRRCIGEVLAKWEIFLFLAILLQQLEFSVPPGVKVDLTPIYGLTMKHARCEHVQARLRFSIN

CYP2C19 = CYP2C19 (Homo sapiens, UniProt P33261); experiment: Inhibition of CYP2C19 (unknown origin) at 10 uM relative to control; format: ADME
Sequence of CYP2C19 (P33261 whole entry): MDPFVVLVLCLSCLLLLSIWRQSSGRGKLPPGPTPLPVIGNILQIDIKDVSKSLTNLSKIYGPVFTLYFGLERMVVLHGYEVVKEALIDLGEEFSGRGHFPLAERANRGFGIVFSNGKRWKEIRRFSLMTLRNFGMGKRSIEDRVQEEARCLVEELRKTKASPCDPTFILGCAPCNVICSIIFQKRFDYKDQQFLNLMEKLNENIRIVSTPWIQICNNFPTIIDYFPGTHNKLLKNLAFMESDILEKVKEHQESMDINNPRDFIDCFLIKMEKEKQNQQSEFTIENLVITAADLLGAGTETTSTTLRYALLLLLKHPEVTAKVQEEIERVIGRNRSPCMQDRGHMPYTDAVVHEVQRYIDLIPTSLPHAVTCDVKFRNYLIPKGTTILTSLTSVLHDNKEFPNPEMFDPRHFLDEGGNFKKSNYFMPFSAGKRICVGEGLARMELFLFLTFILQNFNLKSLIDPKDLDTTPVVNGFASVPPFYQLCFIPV

Compound | GI50 (BaF3 [1]; Mus musculus, BaF3) [nM] | GI50 (BaF3 [2]; Mus musculus, BaF3) [nM] | GI50 (BaF3 [3]; Mus musculus, BaF3) [nM] | GI50 (BaF3 [4]; Mus musculus, BaF3) [nM] | remaining at 1 h, 1 µM [7] [%] | IC50 (Focal adhesion kinase 1) [nM] | GI50 (HCT-116; Homo sapiens, HCT-116) [nM] | GI50 (MDA-MB-231; Homo sapiens, MDA-MB-231) [nM] | GI50 ([9]; Homo sapiens, A375P) [nM] | further results
CCN1CCN(c2ccc(Nc3ncc4scc(-c5cccc([N+](=O)[O-])c5)c4n3)cc2)CC1 | 20.5 | 4 | 136 | 234 | 73.1 | 21 | 110 | 260 | 500 | IC50 [5]: < 0.5 nM; GI50 (BaF3 [6]; Mus musculus, BaF3): 511 nM; GI50 (BaF3 [8]; Mus musculus, BaF3): 23.4 nM; inhibition at 10 µM (CYP2D6): 100%; inhibition at 10 µM (CYP3A4): 55.1%; inhibition at 10 µM (CYP2C9): 100%; inhibition at 10 µM (CYP1A2): 44.8%; inhibition at 10 µM (CYP2C19): 82.9%
CS(=O)(=O)Nc1cccc(-c2csc3cnc(Nc4ccccc4)nc23)c1 |  |  |  |  | 49.6 | 30 |  |  |  | GI50 (HCT-116): 2570 nM; GI50 (MDA-MB-231): 26900 nM; GI50 [9]: 7520 nM
COc1cc(Nc2ncc3scc(-c4cccc(N(C)S(C)(=O)=O)c4)c3n2)cc(OC)c1OC |  |  |  |  |  | 35 |  |  |  | 
CS(=O)(=O)Nc1cccc(-c2csc3cnc(Nc4ccc(N5CCCCC5)cc4)nc23)c1 |  |  |  |  | 58 | 68 |  |  |  | GI50 (HCT-116): 1490 nM; GI50 (MDA-MB-231): 3380 nM; GI50 [9]: 2780 nM
COc1cc(Nc2ncc3scc(-c4ccccc4N(C)S(C)(=O)=O)c3n2)cc(OC)c1OC |  |  |  |  |  | 15 |  |  |  | 
CS(=O)(=O)Nc1cccc(-c2csc3cnc(Nc4ccc(N5CCC(O)CC5)cc4)nc23)c1 |  |  |  |  | 54.8 | 16 |  |  |  | GI50 (BaF3 [1]): 14 nM; GI50 (BaF3 [2]): 23 nM; GI50 (BaF3 [3]): 299 nM; GI50 (BaF3 [4]): 587 nM; IC50 [5]: < 0.5 nM; GI50 (BaF3 [6]): 600 nM; GI50 (BaF3 [8]): 14.5 nM; inhibition at 10 µM (CYP2D6): 61.5%; inhibition at 10 µM (CYP3A4): 57.9%; GI50 (HCT-116): 520 nM; inhibition at 10 µM (CYP1A2): 34.9%; GI50 (MDA-MB-231): 440 nM; inhibition at 10 µM (CYP2C19): 56.5%; GI50 [9]: 1930 nM
CCN1CCN(c2cccc(Nc3ncc4scc(-c5cccc(NS(C)(=O)=O)c5)c4n3)c2)CC1 |  |  |  |  | 100 | 13 | 420 | 1420 | 900 | 

Now from value to compound, other results behind:

GI50 (BaF3 [1]; Mus musculus, BaF3) [nM] | GI50 (BaF3 [2]; Mus musculus, BaF3) [nM] | GI50 (BaF3 [3]; Mus musculus, BaF3) [nM] | GI50 (BaF3 [4]; Mus musculus, BaF3) [nM] | remaining at 1 h, 1 µM [7] [%] | IC50 (Focal adhesion kinase 1) [nM] | GI50 (HCT-116; Homo sapiens, HCT-116) [nM] | GI50 (MDA-MB-231; Homo sapiens, MDA-MB-231) [nM] | Compound | GI50 ([9]; Homo sapiens, A375P) [nM] | further results
14.2 | 1.2 | 55 | 164 | 54.2 | 12 | 270 | 290 | CCN1CCN(c2ccc(Nc3ncc4scc(-c5ccccn5)c4n3)cc2)CC1 | 420 | IC50 [5]: < 0.5 nM; GI50 (BaF3 [6]; Mus musculus, BaF3): 206 nM; GI50 (BaF3 [8]; Mus musculus, BaF3): 9.1 nM
 |  |  |  |  | 18 |  |  | COc1cc(Nc2ncc3scc(-c4ccccn4)c3n2)cc(OC)c1OC |  | 
14.3 | 53 | 117 | 301 | 57.2 | 21 | 190 | 450 | CCN1CCN(c2ccc(Nc3ncc4scc(-c5cccc(N(C)S(C)(=O)=O)c5)c4n3)cc2)CC1 | 220 | IC50 [5]: < 0.5 nM; GI50 (BaF3 [6]; Mus musculus, BaF3): 695 nM; GI50 (BaF3 [8]; Mus musculus, BaF3): 31.7 nM
 |  |  |  |  |  | 9130 | 11400 | CNC(=O)c1ccc(Nc2ncc(C(F)(F)F)c(NCc3nccnc3N(C)S(C)(=O)=O)n2)cc1 [DEFACTINIB] | 5940 | 
 |  |  |  |  | 194 | 1880 | 8820 | CCN1CCN(c2ccc(Nc3ncc4scc(-c5ccccc5S(C)(=O)=O)c4n3)cc2)CC1 | 4270 | 
5 | 2 | 82.8 | 259 |  |  |  |  | CCc1nc(C(N)=O)c(Nc2ccc(N3CCC(N4CCN(C)CC4)CC3)c(OC)c2)nc1NC1CCOCC1 [GILTERITINIB] |  | 
25.2 | 8.7 | 170 | 245 | 55.5 | 18 | 510 | 520 | CCN1CCN(c2ccc(Nc3ncc4scc(-c5cccc(S(C)(=O)=O)c5)c4n3)cc2)CC1 | 640 | IC50 [5]: < 0.5 nM; GI50 (BaF3 [6]; Mus musculus, BaF3): 427 nM; GI50 (BaF3 [8]; Mus musculus, BaF3): 20.6 nM
 |  |  |  | 71.1 | 36 | 300 | 1260 | CCN1CCN(c2ccc(Nc3ncc4scc(-c5cccc(C(=O)NC)c5)c4n3)cc2)CC1 | 1360 | 
12.9 | 2.2 | 68.2 | > 10000 |  |  |  |  | CC(C)(C)c1cc(NC(=O)Nc2ccc(-c3cn4c(n3)sc3cc(OCCN5CCOCC5)ccc34)cc2)no1 [QUIZARTINIB] |  | GI50 (BaF3 [6]; Mus musculus, BaF3): > 10000 nM; GI50 (BaF3 [8]; Mus musculus, BaF3): 0.6 nM
 |  |  |  |  |  | 270 | 1490 | CNC(=O)c1ccccc1Nc1nc(Nc2ccc(N3CCOCC3)cc2OC)ncc1Cl | 1690 | inhibition at 10 µM (CYP2D6): 83.2%; inhibition at 10 µM (CYP3A4): 71.2%; inhibition at 10 µM (CYP2C9): 27%; inhibition at 10 µM (CYP1A2): 73.3%; inhibition at 10 µM (CYP2C19): 50.5%
